Experiments:
PA14 biofilm = assay: Biofilm-eradication assay with tobramycin (Calgary biofilm device); assay type: cell-based, Pseudomonas aeruginosa
Experimental: MA, USA) instrument parameters: Spray voltage 3500 V, vaporizer temperature 370 °C, sheath gas pressure 35 psi, aux gas pressure 30 psi, capillary temperature 270 °C, collision pressure 1.5 mTorr, positive ionization mode. For AQ analyte reaction monitoring parameters please see Table S1.
Table S1. LC-ESI-MS/MS reaction monitoring parameters of AQ analytes in positive ionization mode. precursor product ion collision tube lens retention ion m/z m/z energy (V) offset (V) time (min)
1.2.4 Biofilm-formation assay
Biofilm formation was determined using a MBEC Assay® Biofilm Inoculator with 96-well base (Innvotech, Edmonton, CA). An overnight culture of PA14 was centrifuged (10 min, 5000 x g). The supernatant including extracellular polymers was removed and the pellet washed with 10 mL of LB medium. Centrifugation was repeated, the supernatant discarded, and the pellet resuspended in 5 mL of LB. OD was adjusted to 0.2. The bacteria were further diluted in LB medium, followed by addition of the target compound or DMSO control to give OD 0.1 and 1% DMSO. 150 µL were added to each well of the 96-well plate. The outer wells were used as blanks containing 150 µL of 1% DMSO in LB. Six replicates per sample were distributed evenly across the plate, with every row containing one replicate of each sample. The well plate was covered with the peg lid. One layer of parafilm was wrapped around the biofilm inoculator. The inoculator was incubated at 37 °C, static for 24 h with a beaker of H2O ensuring humidity. Alternatively, the plate was incubated using only LB for 8 h prior to addition of DMSO/24 to give 1% DMSO, followed by another 16 h incubation under the same […]
After 24 h, the plate was removed from the incubator and the peg lid was transferred to a fresh 96 well plate (Nunc U bottom, Thermo Fisher, Dreieich, Germany) containing the respective target […]
compound, 150 µL 1% DMSO in LB. The inoculator was wrapped with parafilm again and incubated for another 24 h. […]
Statistical outliers were determined using the Nalimov test, applying a 95% cut-off. […]

[1] = system: P. aeruginosa strain ATCC 27853; assay: Neutropenic thigh infection model in mice
Experimental: Figure S6. AUC levels after IV and IT administration
1.4.8 In vivo thigh infection model with P. aeruginosa
Male, 6 weeks-old, CD -1 mice (Charles River, Netherlands) were rendered neutropenic by administration of 150 mg/kg and 100 mg/kg cyclophosphamide i.p. on day –4, –1 and +1, respectively. The P. aeruginosa strain ATCC 27853 was used. The inoculum was prepared as follows: on day –1 the P. aeruginosa strain was streaked out onto a blood agar plate and incubated at 37 °C.
Then one sing le colony was inoculated into MHB medium (diluted 1:2 in water) and incubated at 120 rpm and 37 °C. […]
PBS. Then they were adjusted to an OD of 1 and diluted 1:5000 in PBS. The inoculum was plated onto MHB agar plates in serial dilutions and incubated at 37 °C. Mice were grouped into the following (n=18 for each group): (1) baseline inoculum group, sacrificed 2 h post infection; (2) vehicle control group (receiving vehicle t= 2, 12, 24 and 36 h post infection as well as 20 mg/kg tramadol SC t= 0 and 24 h post infection); (3) tobramycin group I (8 mg/kg tobramycin IV at t= 2 and 24 h post infection); (4) tobramycin group II (1 mg/kg tobramycin IV at t= 2 and 24 h post infection); (5) 24 group (30 mg/kg 24 SC at t=2, 12, 24 and 36 h post infection); (6) 24 + tobramycin group (30 mg/kg 24 SC at t=2, 12, 24 and 36 h and tobramycin 1 mg/kg IV at t= 2 and 24 h post infection). On the day of infection (day 0), mice received 30 µL of the P. aeruginosa strain ATCC 27853 into each lateral thigh (inoculum:
1x10^5 cfu/mL). 48 h after infection, mice were euthanized, blood was removed from the heart, lung and thighs were aseptically removed. […]
homogenized in 0.9% NaCl-solution and plated onto MHB agar plates in duplicate in serial dilutions and incubated at 37 °C for 24 h. Blood, lung and thighs were also subjected to LC-MS/MS analysis.
Figure S8. Plasma and lung-tissue levels after the in vivo infection model.

With `CC(C)Oc1ccc(-c2ncc(CNc3ccnc(C(F)(F)F)c3)cn2)cc1Cl` [Compound 24] the “Potentiation of tobramycin activity on biofilm” value (PA14 biofilm; 0.1 × 10^−6 M 24 plus tobramycin 0.5 µg mL^−1, p = 0.21) was “not sufficient”, the “CFU reduction of combination treatment compared to single treatment with the antibiotic” value (PA14 biofilm; 1 and 10 × 10^−6 M 24 plus tobramycin 0.5 µg mL^−1) was over 3 fold and the “bacterial burden in the muscle compared to all other groups” value ([1]; 24 30 mg kg^−1 SC combined with low dose tobramycin 1 mg kg^−1 IV, 48 h, p < 0.001) was “significantly reduced bacterial burden”. For the same compound, the “bacterial burden, secondary site of infection (lung), dissemination” value (shortened to “bacterial burden, secondary site”) ([1]; 24 30 mg/kg SC combined with low tobramycin dose 1 mg/kg IV, 48 h) was “detectable inhibition of dissemination”, the “CFU reduction over vehicle, primary infection site (thigh muscle)” value (“CFU reduction over vehicle” below) ([1]; 24 alone, 30 mg/kg SC at 2, 12, 24 and 36 h p.i., 48 h) was “did not exert significant effects” and the “bacterial burden, secondary site” value ([1]; 24 alone, 30 mg/kg SC, 48 h) was “did not show a significant effect”.
`NC[C@H]1O[C@H](O[C@H]2[C@H](O)[C@@H](O[C@H]3O[C@H](CO)[C@@H](O)[C@H](N)[C@H]3O)[C@H](N)C[C@@H]2N)[C@H](N)C[C@@H]1O` [Tobramycin, tobramycin] was tested, and the “Effect of tobramycin alone on untreated biofilms (CFU)” value (PA14 biofilm; tobramycin 0.5 µg mL^−1, 24 h treatment, p = 0.03) was “only minor effects”, the “terminal level in plasma and lung tissue (LC–MS/MS)” value ([1]; 48 h after infection) was “did not detect any” and the “CFU reduction over vehicle” value ([1]; tobramycin high, 8 mg/kg IV at 2 and 24 h p.i., 48 h) was “did not exert significant effects”. For the same compound, the “bacterial burden, secondary site” value ([1]; tobramycin high, 8 mg/kg IV, 48 h) was “did not reach significance”, the “CFU reduction over vehicle” value ([1]; tobramycin low, 1 mg/kg IV at 2 and 24 h p.i., 48 h) was “did not exert significant effects” and the “bacterial burden, secondary site” value ([1]; tobramycin low, 1 mg/kg IV, 48 h) was “did not show a significant effect”.

— article PMC9929129, “Towards Translation of PqsR Inverse Agonists: From In Vitro Efficacy Optimization to In Vivo Proof‐of‐Principle” (Advanced Science, 2023)
